The data set concerns the target HIF1A. Briefly: HeLa, 100 nM transfected, 24 h, mean of 3. To be noted: ASO.

From the OligoGym collection come the findings set out here.

Bases are written 5' to 3'; sugars and linkages follow in the same order, as letters with counts (s phosphorothioate, o phosphodiester; PS: all linkages phosphorothioate). C may stand for cytosine or 5-methylcytosine; the collection does not tell. l = locked nucleic acid (LNA); d = 2'-deoxy (DNA)

Turning to GTTACTGCCTTCTTAC (sugars l4 d8 l4, PS), the caspase activation (% of PBS control) was 272.
As for “GGCAAGCATCCTG (sugars l2 d1 l1 d8 l1, PS)”, the figure is 359; as for TACTGCCTTCTTA (sugars l2 d9 l2, PS), 184; as for TACTGCCTTCTTA (sugars l1 d10 l2, PS), 130.
The sequence ACTGCCTTCTTAC (sugars l1 d9 l3, PS) came in with a caspase activation (% of PBS control) of 140.
As for “TGGCAAGCATCCT (sugars l1 d1 l1 d8 l2, PS)”, the figure is 145; as for “TGGCAAGCATCCTGTA (sugars ldlldddddddldldl, PS)”, 400; as for “GTTACTGCCTTCTTAC (sugars ldldldddddddlddl, PS)”, 220.
On to “GTTACTGCCTTCTTAC (sugars l2 d1 l1 d8 l4, PS)”, for which the caspase activation (% of PBS control) stood at 194.
Turning to “TGGCAAGCATCCTGTA (sugars ldllddddddddldll, PS)”, the caspase activation (% of PBS control) stood at 466.
As for “TGGCAAGCATCCTGTA (sugars ldlllddddddldldl, PS)”, the figure is 455; as for TACTGCCTTCTTA (sugars l4 d8 l1, PS), 435; as for “GTTACTGCCTTCTTAC (sugars l1 d3 l1 d6 l5, PS)”, 359.
As to “GTTACTGCCTTCT (sugars l1 d9 l1 d1 l1, PS)”, the caspase activation (% of PBS control) stood at 104.
In turn, “TGGCAAGCATCCTGTA (sugars ldddlddddddllldl, PS)” gave a caspase activation (% of PBS control) of 224.
To “TGGCAAGCATCCTGTA (sugars l2 d9 l2 d1 l2, PS)” belongs 401.
“TGGCAAGCATCCTGTA (sugars l1 d2 l1 d7 l5, PS)”: the caspase activation (% of PBS control) was determined as 416.
The sequence “GTTACTGCCTTCTTAC (sugars ldldldddddddllll, PS)” showed a caspase activation (% of PBS control) of 257.
To CAAGCATCCTGTA (sugars l4 d6 l3, PS) belongs 171.
Sequence TGGCAAGCATCCTGTA (sugars l1 d10 l5, PS) showed a caspase activation (% of PBS control) of 480.
On to “GCAAGCATCCTGT (sugars ldllddddddldl, PS)”, for which the caspase activation (% of PBS control) was found to be 176.
Sequence “GTTACTGCCTTCTTAC (sugars l3 d8 l2 d1 l2, PS)” displayed a caspase activation (% of PBS control) of 243.
To ACTGCCTTCTTAC (sugars l2 d8 l3, PS) belongs 209.
Take “TGGCAAGCATCCTGTA (sugars l1 d3 l1 d10 l1, PS)”: the caspase activation (% of PBS control) is 146.
To “GTTACTGCCTTCTTAC (sugars lddddddddddldldl, PS)” belongs 115; to “TGGCAAGCATCCTGTA (sugars ldlllddddddlddll, PS)”, 410.
“TGGCAAGCATCCTGTA (sugars lddldddddddllddl, PS)” gave a caspase activation (% of PBS control) of 314.
On to TGGCAAGCATCCTGTA (sugars l1 d14 l1, PS), for which the caspase activation (% of PBS control) came to 201.
As for “GTTACTGCCTTCTTAC (sugars l3 d1 l1 d7 l4, PS)”, the figure is 324.
To TGGCAAGCATCCTGTA (sugars l5 d9 l2, PS) belongs 402.
On to “GTTACTGCCTTCTTAC (sugars l2 d10 l2 d1 l1, PS)”, for which the caspase activation (% of PBS control) was determined as 151.
Turning to “GTTACTGCCTTCTTAC (sugars lldlldddddddlldl, PS)”, the caspase activation (% of PBS control) was found to be 363.
In the case of “GTTACTGCCTTCTTAC (sugars llddlddddddldlll, PS)”, the caspase activation (% of PBS control) amounted to 220.
Take “CAAGCATCCTGTA (sugars ldllddddddldl, PS)”: the caspase activation (% of PBS control) was found to be 130.
As for “GTTACTGCCTTCTTAC (sugars llddlddddddddldl, PS)”, the figure is 222; as for “GTTACTGCCTTCTTAC (sugars ldldlddddddldlll, PS)”, 231; as for GTTACTGCCTTCTTAC (sugars l2 d9 l5, PS), 328.
As for “ACTGCCTTCTTAC (sugars l3 d7 l1 d1 l1, PS)”, the figure is 383; as for “TGGCAAGCATCCTGTA (sugars l1 d1 l2 d10 l2, PS)”, 342; as for “GTTACTGCCTTCTTAC (sugars l3 d1 l1 d9 l2, PS)”, 185.
To “TTACTGCCTTCTT (sugars l1 d2 l1 d8 l1, PS)” belongs 105; to “GCAAGCATCCTGT (sugars l1 d1 l1 d7 l3, PS)”, 239.
For the sequence “GTTACTGCCTTCT (sugars l2 d1 l1 d6 l3, PS)”, the caspase activation (% of PBS control) was determined as 183.
In turn, TTACTGCCTTCTT (sugars l4 d6 l3, PS) returned a caspase activation (% of PBS control) of 396.
As for “GTTACTGCCTTCTTAC (sugars l3 d8 l3 d1 l1, PS)”, the figure is 360; as for “TGGCAAGCATCCTGTA (sugars l3 d1 l1 d6 l5, PS)”, 536; as for “TGGCAAGCATCCTGTA (sugars l4 d7 l1 d2 l2, PS)”, 323.
The sequence “GTTACTGCCTTCTTAC (sugars l5 d7 l2 d1 l1, PS)” gave a caspase activation (% of PBS control) of 515.
As to “ACTGCCTTCTTAC (sugars l1 d1 l1 d9 l1, PS)”, the caspase activation (% of PBS control) was 188.
Consider “GCAAGCATCCTGT (sugars l1 d1 l2 d8 l1, PS)”, for which the caspase activation (% of PBS control) is 191.
Sequence “TGGCAAGCATCCT (sugars l2 d1 l1 d7 l2, PS)” returned a caspase activation (% of PBS control) of 361.
“ACTGCCTTCTTAC (sugars l1 d9 l1 d1 l1, PS)” registered a caspase activation (% of PBS control) of 140.
As for “GTTACTGCCTTCTTAC (sugars ldlddddddddldldl, PS)”, the figure is 145; as for “TGGCAAGCATCCTGTA (sugars l1 d3 l1 d7 l4, PS)”, 235.
Regarding “TGGCAAGCATCCTGTA (sugars lldlddddddddlddl, PS)”, the caspase activation (% of PBS control) turned out to be 604.
“GGCAAGCATCCTG (sugars l1 d1 l2 d6 l3, PS)”: the caspase activation (% of PBS control) was determined as 495.
As to “ACTGCCTTCTTAC (sugars l2 d1 l1 d7 l2, PS)”, the caspase activation (% of PBS control) turned out to be 162.
“GTTACTGCCTTCTTAC (sugars ldldlddddddllddl, PS)” registered a caspase activation (% of PBS control) of 282.
As for “TGGCAAGCATCCTGTA (sugars l4 d7 l2 d2 l1, PS)”, the figure is 528; as for “GTTACTGCCTTCT (sugars l1 d1 l2 d6 l3, PS)”, 239; as for “TTACTGCCTTCTT (sugars l2 d1 l1 d6 l3, PS)”, 325.
Sequence “CAAGCATCCTGTA (sugars l2 d1 l1 d8 l1, PS)” yielded a caspase activation (% of PBS control) of 123.
TGGCAAGCATCCT (sugars l4 d6 l3, PS) showed a caspase activation (% of PBS control) of 361.
As to “GTTACTGCCTTCTTAC (sugars ldlldddddddldldl, PS)”, the caspase activation (% of PBS control) came out at 187.
